The text below walks through data of patent publication US5039684A, “Tetrazole amide derivatives of heterocyclic alkenyl acid and their use as antiallergic substances” (Valeas S. p. A., priority 1989, dated 1991).

Like-named read-outs stand apart in the source and are kept apart here.

For data set [1], the system named is passive cutaneous anaphylaxis. The data set can be described thus: PCA test on the rat, intravenous administration just before challenge with antigen. To be noted: immediately before challenge; for inhibition (%) / ED50 (conf. lim) P = 0.05: i.v. The class given is in vivo, rat (male Sprague Dawley). The protocol:
(§1) The serum, obtained from rats actively sensitized with ovalbumin (antigen) and suitably diluted, was injected intradermically into the shaven back of male Sprague Dawley rats (2 wheals per rat).
(§2) The rats were treated intravenously after 24 hours with a solution of ovalbumin and Evans blue. Thirty minutes later they were killed and the diameter and intensity of the blue ring formed at the site of the intradermic injection were measured.
(§3) For each treated group (5 per group) the % inhibition was then calculated with respect to the control group.
The pharmacological screening was effected by administering the compounds of the present invention intravenously and orally.
(§4) For intravenous administration (2 ml/kg), those compounds in which R1 =H (see formula I) were dissolved in an aqueous 1% NaHCO3 solution whereas for oral administration (4 ml/Kg) they were either suspended in 0.5% carboxymethylcellulose or dissolved in an aqueous 3% NaHCO3 solution.

The conditions of data set [2]: in vivo; cited from earlier work.
The nature of data set [3]: Acute toxicity in the mouse, oral administration. The class given is in vivo. To be noted: mouse, in vivo, po, 1000 mg/kg, oral, 1000 mg/kg/os; read-out: mortality (%EAD). The protocol:
(§5) Acute toxicity was evaluated in the mouse by administering the compounds orally at scalar doses to a maximum of 1000 mg/kg to evaluate the 50% lethal dose (LD50). The compounds were administered in carboxymethylcellulose (0.5%) in a volume of […] to male mice (Swiss stock) of average weight 20 g.

For the next data set, the system named is mouse. The data set can be described thus: Acute toxicity in the mouse, oral administration. To be noted: oral, 1000 mg/kg/os, 8 treated. The class given is in vivo. The protocol: as §5
The subject of data set [4] is passive cutaneous anaphylaxis. The data set can be described thus: PCA test on the rat, time response curve after oral administration. To be noted: oral; for inhibition in vivo at 100 mg/kg / inhibition in vivo at 1 mg/kg: Rattus norvegicus; for inhibition in vivo at 100 mg/kg: 100 mg/kg/os; for inhibition in vivo at 1 mg/kg: 1 mg/kg/os. The data set is classed as in vivo, rat (male Sprague Dawley). The protocol: as §1, §2, §3, §4

The subject of data set [5] is passive cutaneous anaphylaxis. Description: PCA test on the rat, oral administration before challenge with antigen. The data set is classed as in vivo, rat (male Sprague Dawley). The conditions noted are these: for ED50: Table 2, oral administration, read-out: ED50 (conf. lim) P = 0.05; for oral bioavailability (in words): from ED50 os / ED50 iv comparison. As to the method: The serum, obtained from rats actively sensitized with ovalbumin (antigen) and suitably diluted, was injected intradermically into the shaven back of male Sprague Dawley rats (2 wheals per rat). The rats were treated intravenously after 24 hours with a solution of ovalbumin and Evans blue. Thirty minutes later they were killed and the diameter and intensity of the blue ring formed at the site of the intradermic injection were measured. […] The pharmacological screening was effected by administering the compounds of the present invention intravenously and orally. For intravenous administration (2 ml/kg), those compounds in which R1 =H (see formula I) were dissolved in an aqueous 1% NaHCO3 solution whereas for oral administration (4 ml/Kg) they were either suspended in 0.5% carboxymethylcellulose or dissolved in an aqueous 3% NaHCO3 solution.

For data set [6], the system named is passive cutaneous anaphylaxis. The conditions noted are these: oral, cited from earlier work.
Where [7] appears, read: 5 min, 5 minutes before challenge.
Setting [8] is: 0.25 h, 15 minutes before challenge.
[9] abbreviates: 0.5 h, 30 minutes before challenge.
Where [10] appears, read: 1 h, 60 minutes before challenge.
[11] abbreviates: 2 h, 120 minutes before challenge.

Turning to `O=C([O-])c1cc(=O)c2c(OCC(O)COc3cccc4oc(C(=O)[O-])cc(=O)c34)cccc2o1.[Na+].[Na+]` [DSCG, Disodium chromoglycate, reference compound], the “inhibition (%)” value is recorded as 28.1% in data set [1] (0.1 mg/kg), 33.6% in data set [1] (0.3 mg/kg), 70.0% in data set [1] (1 mg/kg) and 100% in data set [1] (3 mg/kg). Further, the “ED50 (conf. lim) P = 0.05” value in data set [1] is 0.52 mg/kg/iv; in data set [1] (listed as D.S.C.G.) it was 0.52 (0.47-0.83) mg/kg/iv. Further, the “absorption at the gastro-enteric level” value in data set [2] was “not being absorbed at the gastro-enteric level”.

On to `COc1ccc(/C=C/C(=O)Nc2ccccc2C(=O)O)cc1OC` [Tranilast, N-(3', 4'-dimethoxycinnamoyl) anthranylic acid, reference compound], for which the mortality in data set [3] is 87.5%. The “No. (dead)” value with mouse is on record as 7. Besides, the inhibition in vivo at 100 mg/kg in data set [4] (setting [7]) is 17.9%; in data set [4] (setting [8]), 37.4%; in data set [4] (setting [9]) it was 20.5%; in data set [4] (setting [10]), 20.5%; in data set [4] (setting [11]), 13.7%. The “time of administration before challenge giving the peak (maximum) effect” value in data set [4] was 15 min. The ED50 in data set [5] (Rattus norvegicus, po, 0.25 h, 15 minutes before challenge) was 115 mg/kg; in data set [6] (2 hours before challenge, Koda et al.) it was 150 (88, 3-255) mg/kg/os. The “oral bioavailability (in words)” value in data set [5] is reported as “less bioavailable when administered orally than the compounds of the present invention”. In data set [5] (oral), the “activity compared with Tranilast / compounds of the invention (in words)” value is listed as “less active by at least one order of magnitude”.

Regarding `Cc1cccc(C(=O)Nc2nn[nH]n2)n1` [TA 57-07, 6-methyl-N-(1H-tetrazol-5-yl)-2-pyridinecarboxyamide, reference compound], the mortality in data set [3] turned out to be 50%. The “No. (dead)” value in the data set on mouse is reported as 4. The inhibition in vivo at 1 mg/kg was 86.8% in data set [4] (setting [7]); 43.7% in data set [4] (setting [8]); 37.6% in data set [4] (setting [9]); 17.3% in data set [4] (setting [10]); 4.1% in data set [4] (setting [11]); 57.7% in data set [5] (Rattus norvegicus, po, 1 mg/kg, 5 minutes before challenge). The molecule further registered an inhibition in vivo at 0.3 mg/kg in data set [5] (Rattus norvegicus, po, 0.3 mg/kg, 5 minutes before challenge) of 12.7%. Also, the inhibition in vivo at 3 mg/kg in data set [5] (Rattus norvegicus, po, 3 mg/kg, 5 minutes before challenge, read-out: inhibition (%)) was 82.5%. The ED50 is 0.93 mg/kg in data set [5] (Rattus norvegicus, po, 5 min, 5 minutes before challenge); 0.059 mg/kg in data set [1] (Rattus norvegicus, iv, read-out: ED50 (conf. lim) P = 0.05); 0.9 (0.6-1.6) mg/kg/os in data set [6] (5 minutes before challenge, Tsuzurahara et al.). Besides, the “oral bioavailability (in words)” value in data set [5] is “less bioavailable when administered orally than the compounds of the present invention”. For the same molecule, the “ED50 OS/ED50 iv” value in data set [5] (oral 5 minutes before challenge / i.v. immediately before challenge) came to 15.76.
